Reference: US11738029B2, “Rucaparib particles and uses thereof” (CRITITECH, INC., priority 2021, dated 2023)

Key:
Format in all cases: physicochemical
[1] = Specific surface area (SSA) by BET sorptometry
Protocol: As used herein, the “specific surface area” is the total surface area of the rucaparib particle per unit of rucaparib mass as measured by the Brunauer-Emmett-Teller (“BET”) isotherm (i.e.: the BET SSA). As will be understood by those of skill in the art, the SSA is determined on a per gram basis and takes into account both agglomerated and non-agglomerated rucaparib particles in the composition. The BET specific surface area test procedure is a compendial method included in both the United States Pharmaceopeia and the European Pharmaceopeia. The rucaparib particles have a specific surface area (SSA) of at least 12 m^2/g. In various further embodiments, the rucaparib particles have a SSA of at least 13 m^2/g, 14 m^2/g, 15 m^2/g, 16 m^2/g, 17 m^2/g, 18 m^2/g, 19 m^2/g, 20 m^2/g, 21 m^2/g, 22 m^2/g, 23 m^2/g, 24 m^2/g, 25 m^2/g, 26 m^2/g, 27 m^2/g, 28 m^2/g, 29 m^2/g, or 30 m^2/g.
(§1) • Particle Size Distribution (PSD) by Laser Diffraction • Imaging by Scanning Electron Microscopy (SEM) • Specific Surface Area (SSA) determination by BET Sorptometry • Crystalline/amorphous phase determination by Powder X-ray Diffraction (PXRD) • Bulk density analysis by modified USP <616>Bulk Density of Powders Method I
Specific Surface Area Surface area analyses were conducted on a Quantachrome NOVAtouch™ LX2 BET Sorptometer. Surface area results can be found in Table 1.

[2] = Solubility testing, shake-flask method; conditions: 24 hours at 20-25° C.
Protocol: The solubility was determined by using a shake-flask method. The drug was added in excess to each solution prepared in duplicate. The vials were placed on a mechanical shaker for 24 hours at 20-25° C. After shaking, solution was removed and filtered through a 0.45 μm PTFE syringe filter and analyzed by UV/Visible spectrophotometry.

[3] = Bulk density analysis by modified USP <616> Bulk Density of Powders Method I (bulk and tapped)
Text: As used herein, the bulk density (not tapped) of a particle is the ratio of the mass to the volume (including the interparticulate void volume) of an untapped powder sample.
As used herein, the tapped density of a particle is obtained by mechanically tapping a graduated cylinder containing the sample until little further volume change is observed.
as §1

[4] = Particle size distribution (PSD) by laser diffraction, Malvern Mastersizer 3000; conditions: dispersed in ethyl acetate
Protocol: as §1
Particle size analyses were conducted on a Malvern Mastersizer™ 3000 using the Hydro MV™ dispersion unit. A non-validated general PSD method/dispersant method was used to analyze the rucaparib samples. The sample preparation procedure performed was as follows: • Weigh 10 to 20 mg of rucaparib into a 30-mL vial, add 20 mL of ethyl acetate. Disperse the sample by vortexing then sonicating the suspension in an ultrasonic bath for 1 minute. Then transfer the sample suspension to the Malvern Hydro MV™ dispersion unit to obtain obscuration between 5 and 15%.
Particle size distributions can be viewed in Table 1.

Surface Area ([1]; BET): 6.59 m^2/gm
specific surface area measurement ([1]; material used in dissolution testing): 6.59 m2/g
Concentration of Rucaparib Found ([2]; 25% ethanol): 115 µg/mL
Concentration of Rucaparib Found ([2]; 25% methanol): 68.8 µg/mL
Concentration of Rucaparib Found ([2]; 40% ethanol): 394 µg/mL
Concentration of Rucaparib Found ([2]; 40% methanol): 739 µg/mL
Bulk Density ([3]; not tapped): 0.332 gm/cm^3
Tapped Density ([3]; tapped): 0.427 gm/cm^3
PSD - Masterisizer Dv-10 [4]: 2.96 μ
PSD - Masterisizer Dv-50 [4]: 13.6 μ
PSD - Masterisizer Dv-90 [4]: 26.8 μ
Compound: CNCc1ccc(-c2[nH]c3cc(F)cc4c3c2CCNC4=O)cc1 [Rucaparib, (8-fluoro-2-{4-[(methylamino)methyl]phenyl}-1,3,4,5-tetrahydro-6H-azepino[5,4,3-cd]indol-6-one ((1S,4R)-7,7-dimethyl-2-oxobicyclo[2.2.1]hept-1-yl)]
